Assay results published in patent US20230058178A1, “METHODS AND MATERIALS FOR TREATING NERVE INJURY AND/OR PROMOTING WOUND HEALING” (The Penn State Research Foundation, priority 2020, published 2023).

Experiments:
[1] = system: sciatic nerve crush injury; assay: Triceps surae muscle tension immediately after sciatic nerve crush injury; type: in vivo, rat
Description: (§1) Sciatic nerve innervates triceps surae muscle and thus sciatic nerve conduction can be measured in terms of triceps surae muscle contraction. As shown in this experimental setup (FIG. 2) sciatic nerve was electrically stimulated proximal to crush site, and triceps surae muscle tension was measured by force transducer (FT10; Grass Instruments).
(§2) Briefly, Sprague-Dawley (SD) rats were anaesthetized with 3-4% isoflurane, the trachea was cannulated, and the lungs were mechanically ventilated (Harvard Apparatus) with oxygen balanced vaporized 2% isoflurane. The sciatic nerve and triceps surae muscles were exposed by blunt dissection and the calcaneal tendon was severed and linked with braided fishing line to a force transducer. A shielded stimulating electrode was placed under sciatic nerve and injury was performed distal to a stimulating electrode. Sciatic nerve underwent a standardized crush injury with blunt forcep (Miltex #18-1107) and jig or laceration injury with fine scissors. Sciatic nerve crush injury was done 3 mm proximal to trifurcation. The triceps surae muscles were contracted for 10 seconds at 40 Hz, 0.1 ms pulse, and a voltage two times above the motor threshold.

nerve transection = assay: Triceps surae muscle tension after sciatic nerve transection (laceration) injury; type: in vivo, rat; details: 150 μg/kg i.p.
Description: as §1, §2

[2] = system: sciatic nerve crush injury; assay: Triceps surae muscle tension 3 days post sciatic nerve crush injury; type: in vivo, rat; details: 3 days post crush
Text: Sciatic nerve crush injury was done 3 mm proximal to trifurcation.
Anesthesia was maintained with 2% isoflurane.

[3] = system: Dorsal skin excision wounds; assay: Dorsal skin excision wound closure; type: in vivo, mouse
Description: Dorsal skin excision wounds (5-mm diameter) were made on 7-8-week-old wild-type C57BL/6 mice (FIG. 15). Mice were systemically administered saline (control) or 80 μg of 4-AP daily for 14 days. All mice were subjected to functional wound healing and tissue regeneration image-based assays at days 0, 3, 7, 10, and 14. The wound size of each mouse was measured and compared to zero day wound diameter from digital images. The percentage of wound closure was calculated by using the formula:
Wound closure (%)=(area of original wound−area of actual wound)/area of original wound×100.

[4] = 150 μg/kg i.p., SD rat
Description: 4-AP stock was prepared in saline and i.p. dose of 150 μg/kg was administered in rats.
Circulating level of 4-AP in rat serum sample was evaluated using ABSciex 4000 Q Trap mass spectrometry coupled with a Waters Acquity UPLC separation (UPLC/MS/MS) system in the Mass Spectrometry Core Facility in College of Medicine of Penn State University.
4-AP-d4 was used as an internal standard. The multiple reaction monitoring mode (MRM) was used to analyze and quantify 4-AP and 4-AP-d4, with the transitions of m/z 95>78 for 4-AP and 99>82 for 4-AP-d4. 4-AP was quantified by using a standard curve which was constructed by plotting the ratio of the peak area of 4-AP to the peak area 4-AP-d4 versus 4-AP concentration (0.01 μM-20 μM). All peaks were integrated and quantified by ABSciex Multiquan 2.1 software.

[5] = system: sciatic nerve crush injury; details: systemic administration (Tseng et al. 2016); cited from earlier work
[6] = cited from earlier work

Compound: Nc1ccncc1 [4-AP, 4-aminopyridine]
- muscle tension ([1]; 30 minutes after 4-AP 150 μg/kg i.p. or local thermogel, 2100 g before injury, none post crush): 900 g
- Muscle response increase over a crush ([1]; systemic (150 μg/kg i.p.) or local treatment): 800%
- AUC of muscle tension ([1]; systemic or local treatment): significantly increased
- peak muscle tension ([1]; systemic or local treatment): significantly increased
- restoration of nerve conduction upon treatment (nerve transection): does not occur
- muscle tension ([2]; lower stimulation voltage, 30 minutes after 150 μg/kg i.p. or local thermogel): 250 g
- AUC of muscle tension ([2]; systemic or local treatment): significantly increased
- Muscle response increase over a crush ([2]; systemic or local treatment): 80%
- peak muscle tension ([2]; systemic or local treatment): significantly increased
- reduction in wound area as compared to control animals ([3]; by seven days, systemic delivery): at least 50%
- diameter/width of the wound area ([3]; day 3, 5 mm wound at day 0, 80 μg daily systemic (saline 5 mm)): 4.0 mm
- diameter/width of the wound area ([3]; day 7, 80 μg daily systemic (saline 2.7 mm)): 1.5 mm
- diameter/width of the wound area ([3]; day 10, 80 μg daily systemic (saline 1.0)): 0.3 mm
- wound area reduction as compared to control animals ([3]; in three days, systemic delivery): at least 10%
- wound healing compared to saline treated mice ([3]; systemic administration): accelerates the wound healing process
- 4-AP concentration in serum [4]: tolerable 4-AP concentration in serum
- motor functional recovery after sciatic nerve crush injury [5]: improve motor functional recovery after sciatic nerve crush injury
- human tolerable limit of serum 4-AP [6]: 100 ng/mL
